The results in this text go back to patent publication US20220089663A1, “PROTEINS AND FLUOROPHORE-CONTAINING COMPOUNDS SELECTIVE FOR NaV1.7” (MEMORIAL SLOAN KETTERING CANCER CENTER, priority 2019, published 2022).

The target in one data set is T1, hNav1.7 (Homo sapiens, UniProt Q15858).
T1 construct: host or cells: HEK293
Put plainly: automated whole-cell patch clamp (QPatch 16X), HEK293-hNav1.7. It is filed as cell-based.

Data set [1] is described as follows: acute in vivo toxicity after intravenous injection. Further details: species or system mouse. The protocol:
Acute in vivo toxicity. All animal experiments were performed in accordance with protocols approved by the Institutional Animal Care and Use Committee of MSK and followed the National Institute of Health guidelines for animal welfare. Six athymic nude mice 6-8 weeks old were purchased from Envigo RMS, Inc. An intravenous (IV) catheter was placed in tail vein of each mouse and they were anesthetized using Isoflurane (Novaplus, Telangana-India). Anesthesia was maintained using 1.0 to 1.5 L/min of Isoflurane and 2 L/min of oxygen. Three animals were injected with 68 μM, 7 nmol Hsp1a-FL in 100 μL of PBS, and the other three with […], of PBS. Animals were monitored using a rodent surgical monitor (Indus instruments, Houston, Tex.) before, during, and up to 16 minutes after injection. Numeric data points represent averaged values of 5±1 seconds duration. Data was collected before injection, 15 seconds after injection, 5 minutes after injection and 15 minutes after injection. Mouse body core temperature was measured by placing a rectal probe and electronically regulated via a surgical platform. The high-resolution electrocardiogram (EKG) was measured by placing non-invasive electrodes on the 4 paws and electrical contact was assured using a conducting gel (Electrode cream, Indus instruments, Houston, Tex.). Heart rate was automatically calculated from the R-R peaks derived from the EKG signal. Peripheral capillary oxygen saturation (SpO2) was non-invasively measured by placing a clip sensor on the animal's left thigh.
Statistical Analysis. Data were statistically analyzed by generalized estimating equations followed by LSD post hoc test when appropriate using SPSS 23.0. During animal toxicity studies, data points representing loss of signal were excluded from the analysis. Loss of signal was defined by a brief contact loss between the monitoring equipment and the mice (creating a “false” zero or −1 result). Loss of signal was corrected by placing the electrode in close contact to the mice. Average and standard deviations were calculated for each mouse.
Unless otherwise stated, data points represent mean values and error bars represent the standard deviation of biological replicates (mean±SEM). All p-values were calculated using a Student's unpaired t-test. Statistical significance was considered for p-values<0.05 and as follows: ns=not significant, *p<0.05, **p<0.01, ***p<0.001. Mann-Whitney tests were used for analysis of the unpaired samples (e.g. vital signs in mice injected with Hsp1a and mice from the control group) and the Wilcoxon test was used for analysis of paired samples (e.g. vital signs from same mouse before and after injection). Statistical significance was determined with alpha=0.05. Analysis and figures were prepared in GraphPad Prism 8.

The nature of another data set: in vitro. Particulars: human, serum.
For data set [2] the following is noted: 10 μM, human serum, 37° C.
For another data set, the system named is mouse sciatic nerves. Put plainly: epifluorescence imaging (IVIS Spectrum) of sciatic nerves and organs 30 min after injection. Conditions: 30 minutes after systemic injection. The class given is in vivo. Here is the method: Animal Model. Female athymic nude mice (4-8 week-old, athymic-Nude (outbred) (Stock #: 088; Envigo, USA) were allowed to acclimatize at the Memorial Sloan Kettering Cancer Center (MSK) vivarium for 1 week with ad libitum food and water prior to the experimental procedure. For imaging experiments, animals were sacrificed 30 min post-tail vein injection of Hs1a-FL, Hs1a/Hs1a-FL, Hsp1a-FL, Hsp1a/Hsp1a-FL, or PBS. All animal experiments were performed in accordance with institutional guidelines and approved by the IACUC of MSK, following NIH guidelines for animal welfare.
Epifluorescence Imaging. Animals were intravenously injected with Hsp1a-FL (7 nmol, 68 μM of Hsp1a-FL in 100 μL of PBS, n=9), or Hs1a-FL (4 nmol, 45 μM of Hs1a-FL in 100 μL of PBS, n=3). To assess the specificity of the Hsp1a-FL or Hs1a-FL accumulation, animals were injected with a combination of Hsp1a and Hsp1a-FL (Hsp1a-FL, 68 μM, 7 nmol and Hsp1a 204 μM, 21 nmol in 100 μL PBS, n=9), Hs1a and Hs1a-FL (Hs1a-FL, 45 μM, 4 nmol and Hs1a, 120 μM, 12 nmol in 100 μL PBS, n=3) or PBS (n=9). Animals were sacrificed 30 min post-injection and epifluorescence images obtained. Epifluorescence images of the right sciatic nerve (RSN) and the left sciatic nerve (LSN) were obtained in situ. Epifluorescence of the biodistribution of the peptides in excited RSN, LSN, muscle, heart, kidney, liver, and brain were acquired with IVIS Spectrum (PerkinElmer) using a predefined GFP filterset (e.g., excitation=465/30 nm, emission=520-580 nm) based on the particular fluorophore employed in the compounds. Autofluorescence was removed through spectral unmixing. Semiquantitative analysis of the Hsp1a-FL or Hs1a-FL signal was conducted by measuring the average radiant efficiency (in units of unit [p/s/cm^2/sr]/[μW/cm^2]) in regions of interest (ROIs) that were placed on all resected organs under white light guidance.

T1 sequence (Q15858 whole entry): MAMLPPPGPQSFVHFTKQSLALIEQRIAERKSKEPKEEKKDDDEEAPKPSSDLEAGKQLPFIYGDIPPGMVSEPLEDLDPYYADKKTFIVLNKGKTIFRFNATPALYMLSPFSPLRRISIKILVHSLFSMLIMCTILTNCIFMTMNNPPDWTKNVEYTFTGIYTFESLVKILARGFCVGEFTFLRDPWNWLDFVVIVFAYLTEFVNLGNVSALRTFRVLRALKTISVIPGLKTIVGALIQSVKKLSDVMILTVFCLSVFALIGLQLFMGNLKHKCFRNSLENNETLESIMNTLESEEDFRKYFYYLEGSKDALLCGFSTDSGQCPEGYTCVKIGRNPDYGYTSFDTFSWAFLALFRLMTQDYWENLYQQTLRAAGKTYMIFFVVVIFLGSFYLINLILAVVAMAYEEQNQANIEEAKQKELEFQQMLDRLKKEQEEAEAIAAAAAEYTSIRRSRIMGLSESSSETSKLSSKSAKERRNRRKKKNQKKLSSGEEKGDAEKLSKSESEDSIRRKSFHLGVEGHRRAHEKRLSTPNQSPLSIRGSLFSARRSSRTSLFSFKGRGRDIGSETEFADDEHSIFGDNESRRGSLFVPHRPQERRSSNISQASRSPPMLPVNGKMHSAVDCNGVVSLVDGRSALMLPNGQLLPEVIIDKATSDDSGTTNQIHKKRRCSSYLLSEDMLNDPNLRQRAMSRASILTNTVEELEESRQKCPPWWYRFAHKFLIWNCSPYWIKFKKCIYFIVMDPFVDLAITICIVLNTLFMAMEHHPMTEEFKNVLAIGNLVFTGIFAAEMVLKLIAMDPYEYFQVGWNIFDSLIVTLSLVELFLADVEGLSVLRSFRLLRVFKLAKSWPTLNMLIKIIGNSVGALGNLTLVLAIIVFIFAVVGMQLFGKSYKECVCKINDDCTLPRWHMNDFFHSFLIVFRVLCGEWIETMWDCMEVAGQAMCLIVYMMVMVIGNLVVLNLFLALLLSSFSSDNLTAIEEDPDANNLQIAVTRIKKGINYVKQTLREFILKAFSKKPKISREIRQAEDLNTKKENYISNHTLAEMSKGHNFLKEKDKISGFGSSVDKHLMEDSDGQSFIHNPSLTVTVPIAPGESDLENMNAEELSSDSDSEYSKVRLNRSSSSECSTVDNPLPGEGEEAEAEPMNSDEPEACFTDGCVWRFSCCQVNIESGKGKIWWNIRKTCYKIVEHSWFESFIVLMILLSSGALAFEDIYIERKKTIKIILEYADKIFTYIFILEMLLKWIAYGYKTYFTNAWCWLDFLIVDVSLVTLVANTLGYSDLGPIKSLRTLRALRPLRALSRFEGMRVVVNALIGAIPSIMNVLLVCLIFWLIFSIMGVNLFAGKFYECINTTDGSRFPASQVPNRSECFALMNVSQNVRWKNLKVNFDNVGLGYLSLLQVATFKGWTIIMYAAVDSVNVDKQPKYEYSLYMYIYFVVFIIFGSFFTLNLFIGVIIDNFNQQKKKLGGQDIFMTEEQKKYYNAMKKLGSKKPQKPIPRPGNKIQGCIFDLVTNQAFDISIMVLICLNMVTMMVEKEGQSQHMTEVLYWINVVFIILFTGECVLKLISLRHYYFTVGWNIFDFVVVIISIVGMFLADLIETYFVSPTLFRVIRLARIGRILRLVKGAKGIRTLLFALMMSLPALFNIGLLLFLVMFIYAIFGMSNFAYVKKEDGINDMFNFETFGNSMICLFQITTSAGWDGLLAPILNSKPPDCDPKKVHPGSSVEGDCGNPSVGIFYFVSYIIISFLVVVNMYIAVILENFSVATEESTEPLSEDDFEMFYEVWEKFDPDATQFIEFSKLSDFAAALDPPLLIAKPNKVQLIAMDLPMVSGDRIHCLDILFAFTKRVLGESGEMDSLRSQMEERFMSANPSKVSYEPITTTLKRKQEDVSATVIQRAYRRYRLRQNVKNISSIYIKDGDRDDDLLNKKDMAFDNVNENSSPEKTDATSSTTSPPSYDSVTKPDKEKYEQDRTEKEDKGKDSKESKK
T1 sequence (Q07699 19-218, further chain): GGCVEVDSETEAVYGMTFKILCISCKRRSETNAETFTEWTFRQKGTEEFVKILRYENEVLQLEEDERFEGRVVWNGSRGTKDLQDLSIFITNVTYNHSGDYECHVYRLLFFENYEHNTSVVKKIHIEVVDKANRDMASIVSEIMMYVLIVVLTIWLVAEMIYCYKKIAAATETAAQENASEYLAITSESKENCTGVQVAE

Broadly, the IC50 is the concentration that inhibits the measured activity by half. On to `CC[C@H](C)[C@H](NC(=O)[C@H](CCCCN)NC(=O)[C@@H]1CSSC[C@@H]2NC(=O)[C@@H]3CCCN3C(=O)[C@H](CCCNC(=N)N)NC(=O)[C@H](CCC(=O)O)NC(=O)[C@H](CO)NC(=O)[C@H](CC(=O)O)NC(=O)[C@@H]3CSSC[C@H](NC(=O)[C@H](C(C)C)NC(=O)[C@H](CC(C)C)NC(=O)CNC(=O)[C@H](CCC(=O)O)NC(=O)[C@H](CSSC[C@H](NC(=O)[C@@H](N)Cc4ccc(O)cc4)C(=O)N[C@@H](CCC(N)=O)C(=O)N[C@@H](CCCCN)C(=O)N[C@@H](Cc4ccccc4)C(=O)N[C@@H](CC(C)C)C(=O)N[C@@H](Cc4c[nH]c5ccccc45)C(=O)N[C@@H]([C@@H](C)O)C(=O)N3)NC2=O)C(=O)N[C@@H](CCCNC(=N)N)C(=O)N[C@@H](CC(C)C)C(=O)N[C@@H](Cc2c[nH]c3ccccc23)C(=O)N1)C(=O)N[C@@H](CC(N)=O)C(N)=O` [Hsp1a], for which the “pIC50 difference to sHsp1a on hNav1.7” value against hNav1.7 was “no significant pIC50s difference”. Further, the IC50 on hNav1.7 (HEK293 cells stably expressing human channel, read-out: IC50 Nav1.7) was 0.013 µM. Besides, the average core temperature came out at 34.5 °C in data set [1] (15 seconds post injection), 34.6 °C in data set [1] (5 min post-injection) and 34.6 °C in data set [1] (15 minutes post-injection). Further, the EKG pattern result in data set [1] (before and up to 16 minutes after injection) is given as “No changes were observed”.

Usually fraction remaining stands for the share of the starting amount still present when the sample was taken. Low values mean a greater loss, high ones greater stability. Turning to `CSCC[C@@H]1NC(=O)[C@H](CC(C)C)NC(=O)[C@H](CCCNC(=N)N)NC(=O)[C@H](CO)NC(=O)[C@@H]2CSSC[C@@H]3NC(=O)[C@H](CO)NC(=O)CNC(=O)[C@H]([C@@H](C)O)NC(=O)[C@H](CSSC[C@H](N)C(=O)N[C@@H](CCCCN)C(=O)NCC(=O)N[C@@H](CCCCN)C(=O)NCC(=O)N[C@@H](C)C(=O)N[C@@H](CCCCN)C(=O)N2)NC(=O)[C@H](CSSC[C@@H](C(N)=O)NC(=O)[C@H](CCCCN)NC(=O)CNC(=O)[C@H](CO)NC(=O)[C@H](CCCNC(=N)N)NC3=O)NC(=O)[C@H](CC(=O)O)NC(=O)[C@H](Cc2ccc(O)cc2)NC1=O` [MVIIA], the fraction remaining at 24 h in the data set “in vitro” is 50%.

Take `CC[C@H](C)[C@@H]1NC(=O)[C@H](CCCNC(=N)N)NC(=O)[C@H](CC(=O)O)NC(=O)[C@H](CCSC)NC(=O)[C@H](CCCNC(=N)N)NC(=O)CNC(=O)CNC(=O)[C@H](Cc2ccccc2)NC(=O)[C@@H](NC(=O)[C@H](CO)NC(=O)[C@H](CO)NC(=O)[C@H](CCCNC(=N)N)NC(=O)[C@H](CCCNC(=N)N)NC(=O)[C@H](CC(C)C)NC(=O)[C@@H](N)CO)CSSC[C@@H](C(=O)N[C@@H](CC(N)=O)C(=O)N[C@@H](CO)C(=O)N[C@@H](Cc2ccccc2)C(=O)N[C@@H](CCCNC(=N)N)C(=O)N[C@@H](Cc2ccc(O)cc2)C(=O)O)NC(=O)CNC(=O)[C@H](CC(C)C)NC(=O)CNC(=O)[C@H](CO)NC(=O)[C@H](CCC(N)=O)NC(=O)[C@H](C)NC(=O)CNC1=O` [hANP, reference compound]: the “time of incubation in which degraded” value in data set [2] was in the range of 1 to 2 h.

Regarding “YCQK(BODIPY665)FLWTCDSERPCCEGLVCRLWCKIN-NH2 (N-terminal YCQK(BODIPY665) extension; C-terminal amide) [Hsp1a-BODIPY665]”, the “biodistribution in various tissues” value with mouse sciatic nerves was “limited to the peripheral nervous system”.

For the compound “YCQK(CY7.5)FLWTCDSERPCCEGLVCRLWCKIN-NH2 (N-terminal YCQK(CY7.5) extension; C-terminal amide) [Hsp1a-CY7.5]”, in the data set with mouse sciatic nerves, the “biodistribution in various tissues” value is on record as “limited to the peripheral nervous system”.

“YCQK(DY-684)FLWTCDSERPCCEGLVCRLWCKIN-NH2 (N-terminal YCQK(DY-684) extension; C-terminal amide) [Hsp1a-DY-684]”: the “biodistribution in various tissues” value in the data set with mouse sciatic nerves is “limited to the peripheral nervous system”.

“YCQK(IR-800)FLWTCDSERPCCEGLVCRLWCKIN-NH2 (N-terminal YCQK(IR-800) extension; C-terminal amide) [Hsp1a-IR800]”: in the data set on mouse sciatic nerves, the “biodistribution in various tissues” value is given as “limited to the peripheral nervous system”.

For “YCQK(Jane1ia669)FLWTCDSERPCCEGLVCRLWCKIN-NH2 (N-terminal YCQK(Janelia669) extension; C-terminal amide) [Hsp1a-Janelia669]”, in the data set on mouse sciatic nerves, the “biodistribution in various tissues” value is given as “limited to the peripheral nervous system”.
